Source: US12460215B2, “Bacillus expression system” (WILLIAM MARSH RICE UNIVERSITY, priority 2018, dated 2025)

Key:
[1] = tested on: LacI lactose operon repressor (SEQ ID NO 11), Phy-spank system (sfgfp reporter); test: IPTG dose response of the Phy-spank inducible promoter system (steady state transfer function, sfGFP fluorescence by flow cytometry); format: cell-based, B. subtilis PY79; conditions: Hill function fit
Text: (§1) FIG. 1E sfGFP Fluorescence from LacI-T7 and Phy-spank as a function of IPTG concentration.
Phy-spank is a variant of the IPTG-inducible promoter Pspac optimized for higher expression and dynamic range, and is perhaps the most widely used B. subtilis inducible promoter system. We constructed a second B. subtilis strain wherein sfgfp* was expressed under the control of Phy-spank, RiboJ, and RBS MF001 to compare its performance to that of LacI-T7.
Next, we measured the steady state transfer function of both systems by growing the corresponding strains under different concentrations of IPTG. In both cases, sfGFP fluorescence increases as a function of IPTG concentration in a manner well-approximated by a Hill function (FIG. 1E). […]
(§2) The sfGFP fluorescence distribution of each culture was measured using a BD FACScan flow cytometer with an excitation source of 488 nm and an emission window of 510/21 nm. […] A suspension of calibration beads (Spherotech® RCP-30-5A) in PBS was measured with each experiment. […]
(§3) Cell populations were gated by forward scatter/side scatter density (not shown) retaining 50% of the total number of events. Next, fluorescence of each gated event in arbitrary units was converted into standardized MEFL values using the calibration bead data. […] Numerical sfGFP fluorescence values of every sample and replicate can be found in Table 1.

[2] = tested on: LacI lactose operon repressor (SEQ ID NO 11), LacI-T7 system (Phy-spank-T7 RNAP / PT7lac, sfgfp reporter); test: IPTG dose response of the LacI-T7 inducible promoter system (steady state transfer function, sfGFP fluorescence by flow cytometry); format: cell-based, B. subtilis PY79; conditions: Hill function fit
Text: as §1
Next, we measured the steady state transfer function of both systems by growing the corresponding strains under different concentrations of IPTG. In both cases, sfGFP fluorescence increases as a function of IPTG concentration in a manner well-approximated by a Hill function (FIG. 1E).
For each experiment, an overnight LB culture was started from the freezer stock of each relevant strain. The next day, saturated cultures (OD600˜3) were diluted 10^5-fold in M9. […]
as §2
as §3, with “data. The total cellular fluorescence of each culture sample was then obtained by calculating the median MEFL fluorescence of all gated events in that sample.” for “data.”

[3] = Bacillus subtilis, IPTG detection threshold, sfGFP fluorescence, read-out: 50% activation concentration
[4] = sfGFP fluorescence as a function of IPTG concentration

`CC(C)S[C@@H]1O[C@H](CO)[C@H](O)[C@H](O)[C@H]1O` [IPTG, Isopropyl β-D-1-thiogalactopyranoside] showed an EC50 [1, 3] of 50.2 ± 1.5 µM, a Hill coefficient [1, 4] of 2.120±0.033 and an EC50 [2, 3] of 54.1 ± 1.6 µM. For the same compound, the Hill coefficient [2, 4] was 3.377±0.051.
